Target: OX2R (Homo sapiens (Human), UniProt O43614)
Experiment: radioligand binding assay, membranes from CHO cells expressing OX2 receptor
Conditions: CHO cell membranes

Chain of OX2R (O43614 whole entry): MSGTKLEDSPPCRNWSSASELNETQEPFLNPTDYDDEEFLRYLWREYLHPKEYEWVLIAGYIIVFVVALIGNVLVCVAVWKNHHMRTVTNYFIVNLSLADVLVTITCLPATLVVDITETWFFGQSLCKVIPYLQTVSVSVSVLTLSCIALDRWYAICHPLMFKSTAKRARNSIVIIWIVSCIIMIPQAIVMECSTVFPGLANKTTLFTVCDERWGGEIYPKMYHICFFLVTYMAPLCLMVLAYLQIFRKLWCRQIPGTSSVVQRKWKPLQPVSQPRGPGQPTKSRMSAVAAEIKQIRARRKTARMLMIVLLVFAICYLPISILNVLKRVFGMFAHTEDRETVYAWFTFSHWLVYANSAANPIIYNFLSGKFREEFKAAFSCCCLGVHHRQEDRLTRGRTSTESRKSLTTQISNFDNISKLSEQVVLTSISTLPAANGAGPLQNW

COc1ccc(CNC(=O)c2cc(-c3cc(C)cc(C)c3)nnc2-c2cnn(C)c2)cc1OC [Compound 1-5, N-(3,4-dimethoxybenzyl)-6-(3,5-dimethylphenyl)-3-(1-methyl-1H-pyrazol-4-yl)pyridazine-4-carboxamide]
Ki: 3.3 nM

COc1ccc(CNC(=O)c2cc(-c3cc(C)cc(Cl)c3)nnc2N2CCOCC2)cc1OC [Compound 2-2, 6-(3-chloro-5-methylphenyl)-N-(3,4-dimethoxybenzyl)-3-morpholin-4-ylpyridazine-4-carboxamide]
Ki: 0.96 nM
